Patent US20200383946A1, “LIPOIC ACID FORMULATIONS” (Aciont Inc., priority 2019, published 2020)

Assay: physchem
Format: physicochemical
Details: aqueous buffer, solubility of DHLA
Text: Dihydrolipoic acid (DHLA) was obtained from Sigma (Cat #T8260).
Again, the PBS helped maintain the pH within a suitable pH range.

For `O=C(O)CCCC[C@@H](S)CCS` (racemic) [DHLA, Dihydrolipoic acid], which solubility is on record?
Its solubility is over 76 mg/mL.
